Earlier results in patent US20180267043A1, “USE OF BIOMARKERS FOR PREDICTING CLINICAL SENSITIVITY TO CANCER TREATMENT” (CELGENE CORPORATION, priority 2014, published 2018).

Experiments:
[1] = test system: CRBN; conditions: individual point mutants; cited from earlier work
[2] = biological target: T1, CRBN (Homo sapiens, UniProt Q96SW2); conditions: Ito et al., Science 2010; cited from earlier work
Target sequence in this assay (Q96SW2 whole entry): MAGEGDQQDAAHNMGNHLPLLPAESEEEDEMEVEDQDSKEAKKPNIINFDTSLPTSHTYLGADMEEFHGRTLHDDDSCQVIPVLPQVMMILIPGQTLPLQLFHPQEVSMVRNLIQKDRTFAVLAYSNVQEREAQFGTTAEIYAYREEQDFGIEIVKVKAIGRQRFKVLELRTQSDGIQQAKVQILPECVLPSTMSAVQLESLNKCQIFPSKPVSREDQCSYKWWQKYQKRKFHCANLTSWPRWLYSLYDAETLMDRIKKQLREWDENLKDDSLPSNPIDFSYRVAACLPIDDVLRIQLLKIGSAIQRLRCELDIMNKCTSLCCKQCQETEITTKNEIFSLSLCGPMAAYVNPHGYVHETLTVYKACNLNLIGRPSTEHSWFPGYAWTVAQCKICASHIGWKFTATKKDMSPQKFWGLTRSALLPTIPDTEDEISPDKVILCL

[3] = biological target: CRBN (Homo sapiens, UniProt Q96SW2, W386A/Y384A); conditions: double mutant; cited from earlier work
[4] = biological target: T1, CRBN; conditions: in vitro; cited from earlier work
Target sequence in this assay (Q96SW2 whole entry): as above
Target sequence in this assay (Q16531 whole entry partner): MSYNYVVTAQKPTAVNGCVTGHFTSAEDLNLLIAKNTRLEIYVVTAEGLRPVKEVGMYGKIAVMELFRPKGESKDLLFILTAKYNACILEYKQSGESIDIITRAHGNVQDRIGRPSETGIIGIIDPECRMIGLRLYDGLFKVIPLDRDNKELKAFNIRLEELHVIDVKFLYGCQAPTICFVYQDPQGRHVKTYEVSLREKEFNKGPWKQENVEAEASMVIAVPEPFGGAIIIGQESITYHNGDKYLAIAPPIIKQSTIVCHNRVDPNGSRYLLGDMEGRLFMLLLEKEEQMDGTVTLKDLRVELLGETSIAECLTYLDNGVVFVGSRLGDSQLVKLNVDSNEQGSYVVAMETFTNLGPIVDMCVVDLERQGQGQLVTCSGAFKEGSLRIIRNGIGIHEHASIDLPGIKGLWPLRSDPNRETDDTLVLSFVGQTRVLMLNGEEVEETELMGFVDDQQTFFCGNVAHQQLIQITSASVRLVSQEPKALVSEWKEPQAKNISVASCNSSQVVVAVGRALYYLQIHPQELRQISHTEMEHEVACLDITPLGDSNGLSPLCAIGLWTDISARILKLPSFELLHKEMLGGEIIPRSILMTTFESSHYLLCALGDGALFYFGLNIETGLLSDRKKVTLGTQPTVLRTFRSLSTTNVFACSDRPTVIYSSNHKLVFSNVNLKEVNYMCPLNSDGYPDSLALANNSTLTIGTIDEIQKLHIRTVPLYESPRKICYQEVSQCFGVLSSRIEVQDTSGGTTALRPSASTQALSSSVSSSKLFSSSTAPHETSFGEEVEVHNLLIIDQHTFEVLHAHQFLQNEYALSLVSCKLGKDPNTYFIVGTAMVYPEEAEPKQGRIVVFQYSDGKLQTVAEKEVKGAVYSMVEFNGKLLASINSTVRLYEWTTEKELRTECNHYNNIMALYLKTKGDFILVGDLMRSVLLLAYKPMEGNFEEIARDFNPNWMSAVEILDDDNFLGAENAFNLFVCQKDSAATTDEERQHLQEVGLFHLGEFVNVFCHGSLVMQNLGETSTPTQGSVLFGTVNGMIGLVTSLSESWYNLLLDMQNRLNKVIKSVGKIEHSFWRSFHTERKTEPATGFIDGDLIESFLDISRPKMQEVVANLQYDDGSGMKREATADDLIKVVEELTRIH
Target sequence in this assay (Q13619 whole entry partner): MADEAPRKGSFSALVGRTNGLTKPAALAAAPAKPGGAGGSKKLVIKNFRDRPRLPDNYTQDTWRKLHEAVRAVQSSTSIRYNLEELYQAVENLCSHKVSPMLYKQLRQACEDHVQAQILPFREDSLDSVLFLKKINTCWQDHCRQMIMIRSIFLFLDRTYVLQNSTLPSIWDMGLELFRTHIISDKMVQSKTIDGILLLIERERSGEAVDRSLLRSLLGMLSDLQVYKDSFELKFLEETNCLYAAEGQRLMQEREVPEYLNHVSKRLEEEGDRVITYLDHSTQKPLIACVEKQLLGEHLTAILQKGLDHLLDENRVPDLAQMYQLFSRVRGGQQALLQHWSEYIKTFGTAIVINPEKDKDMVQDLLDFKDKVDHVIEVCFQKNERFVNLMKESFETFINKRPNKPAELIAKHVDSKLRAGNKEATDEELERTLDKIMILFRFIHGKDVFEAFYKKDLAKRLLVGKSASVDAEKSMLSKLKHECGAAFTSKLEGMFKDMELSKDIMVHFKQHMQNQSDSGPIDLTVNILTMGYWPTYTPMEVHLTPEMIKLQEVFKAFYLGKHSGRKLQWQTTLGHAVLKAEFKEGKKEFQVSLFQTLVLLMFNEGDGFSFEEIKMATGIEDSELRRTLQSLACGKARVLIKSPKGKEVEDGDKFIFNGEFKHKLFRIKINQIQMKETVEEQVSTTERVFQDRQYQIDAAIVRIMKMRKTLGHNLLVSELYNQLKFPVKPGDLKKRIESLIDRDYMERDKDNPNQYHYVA
Target sequence in this assay (P62877 whole entry partner): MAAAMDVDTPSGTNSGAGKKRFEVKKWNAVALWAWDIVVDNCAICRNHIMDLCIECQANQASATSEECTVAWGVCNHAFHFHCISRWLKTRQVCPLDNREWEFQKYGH

Sequence of CRBN (Homo sapiens, UniProt Q96SW2, W386A/Y384A) (Q96SW2 whole entry Y384A/W386A): as the sequence (Q96SW2 whole entry) above, with Y384A, W386A counted along it

O=C1CCC(N2C(=O)c3ccccc3C2=O)C(=O)N1 (stereo not shown) [thalidomide]
Binding to CRBN point mutants Y384A and W386A [1]: both defective for thalidomide binding
Binding to CRBN [2]: binds to thalidomide
Binding to CRBN double mutant (Y384A, W386A) [3]: lowest thalidomide-binding activity
Auto-ubiquitination of CRBN [4]: inhibit auto-ubiquitination of CRBN in vitro
